Reference: patent US20230029496A1, “AMINO ACID ALTERNATIVE CURING SYSTEM” (THE TEXAS A&M UNIVERSITY SYSTEM, priority 2019, published 2023)
Values joined by “and” are separate entries in the source; they are usually repeats but may differ in a detail not shown here. Equal values may be shown once. Marks after values point to notes of the source that are not given here.

Test system: Nitric Oxide Synthase (NOS) system
Assay: Residual nitrite in pre-rigor pork semimembranosus muscle immersed in L-arginine (first study)
Type: biochemical
Procedure: Pre-rigor pork Semimembranosus muscle samples were collected from four pre-rigor pork carcasses (n=4) harvested at the Rosenthal Meat Science and Technology Center at Texas A&M University at six separate times over a four day period (N=24). Muscle samples were treated with five concentrations of L-arginine, using water as the control treatment. Samples were either subjected to heat treatment (water bath increasing to 62° C. for 60 min) or left raw/fresh (uncooked). All treated muscle samples were analyzed for residual nitrite, and cooked samples were analyzed for nitrosylhemochromagen levels to determine curing efficiency.
Solutions were prepared according to Wu to stabilize the muscle samples for enclosed reactions within the 50 mL conical tubes. […] The NaCl was used to stabilize any reaction and the NaE was used to accelerate any cure reaction that could occur. The L-arginine was prepared separately so as to be administered in specific concentration once the five grams of meat was added to the reaction tubes by creating dilutions of millimolar concentrations at 0 mM, 2 mM, 4 mM, 8 mM, 16 mM, and 32 mM.
The procedures for determining the following sample reactions followed the procedures outlined by Wu 24 5 g muscle samples were individually placed into 50 mL conical tubes.
Residual nitrite was determined using the modified AOAC Official Method 973.31 (Nitrite Analysis in Cured Meats Procedure) and was verified by Wu with sample (plasma or serum) preparation for amino acid analysis by HPLC and determination of nitrite (UV/VIS Spectrophotometric Method). This procedure was used to determine any residual nitrite found in samples. All samples were tested three weeks after being held in a −30° C. freezer then thawed in a 0° C. cooler.
Procedure: • 1. Weigh 5 g (±0.01) of finely comminuted and thoroughly mixed sample into a 100 ml beaker. • 2. Add approximately 40 ml distilled water and heat to 80° C. Use a glass rod to break up all lumps and mix thoroughly. • 3. Transfer the heated solution to a 500 ml volumetric flask. Quantitatively wash the beaker and rod with successive portions of the hot distilled water, adding all washings to the flask (approximately 300 ml). • 4. Transfer the flask to a steam bath (˜100° C.) and shake occasionally for 2 hour. After cooling to room temperature, bring the volume to 500 ml with distilled water and remix. Filter through two Whatman No. 2 filter papers into flask and mix solution thoroughly (discard the residue). Then transfer 25 ml of the filtrate into a 50 ml volumetric flask then add 2.5 ml sulfanilamide reagent, mix thoroughly. • 5. After setting for 5 min, add 2.5 ml NED reagent, mix. Dilute to volume with distilled water, mix and set for another 15 min to let the color develop. • 6. Transfer a portion of the solution to the cuvette and read absorbance at 540 nm against a blank of 45 ml distilled water+2.5 ml sulfanilamide reagent+2.5 ml NED reagent.
• 1. Pipette 0.5 mL of plasma (or serum) to a 12×75 mm polypropylene tube. Place the tube in ice. • 2. Add 0.5 mL of […] to the tube (the tube remains in ice). • 3. Mix the tube well (using a vortex). • 4. After 2 min, add 0.25 mL of 2 M K2CO3 to the tube (the tube remains in ice). • 5.

## N=C(N)NCCC[C@H](N)C(=O)O [L-arginine]
2 mM L-arginine, cooked pellet
  Residual Nitrite: 10.46 ppm and 10.46^a ppm
2 mM L-arginine, cooked supernatant
  Residual Nitrite: 5.81 ppm and 5.81^ab ppm
2 mM L-arginine, raw supernatant, stored 3 weeks at -30° C.
  Residual Nitrite: 4.53^b ppm
4 mM L-arginine, cooked pellet
  Residual Nitrite: 9.35 ppm and 9.35^a ppm
4 mM L-arginine, cooked supernatant
  Residual Nitrite: 8.79 ppm and 8.79^a ppm
4 mM L-arginine, raw supernatant, stored 3 weeks at -30° C.
  Residual Nitrite: 8.00 ppm and 8.00^ab ppm
8 mM L-arginine, cooked pellet
  Residual Nitrite: 11.22 ppm and 11.22^a ppm
8 mM L-arginine, cooked supernatant
  Residual Nitrite: 5.85 ppm and 5.85^ab ppm
8 mM L-arginine, raw supernatant, stored 3 weeks at -30° C.
  Residual Nitrite: 9.66 ppm and 9.66^ab ppm
16 mM L-arginine, cooked pellet
  Residual Nitrite: 14.06 ppm and 14.06^a ppm
16 mM L-arginine, cooked supernatant
  Residual Nitrite: 3.19 ppm and 3.19^ab ppm
16 mM L-arginine, raw supernatant, stored 3 weeks at -30° C.
  Residual Nitrite: 9.23 ppm and 9.23^ab ppm
32 mM L-arginine, cooked pellet
  Residual Nitrite: 15.69 ppm and 15.69^a ppm
32 mM L-arginine, cooked supernatant
  Residual Nitrite: 7.86 ppm and 7.86^ab ppm
32 mM L-arginine, raw supernatant, stored 3 weeks at -30° C.
  Residual Nitrite: 14.34 ppm and 14.34^a ppm
